These results are taken from patent publication US10385057B2, “Pyrazole compounds and methods of making and using same” (Lundbeck La Jolla Research Center, Inc., priority 2015, dated 2019).

What all share (format): biochemical
The target of test [1] is T1, MAGL (Homo sapiens, UniProt Q99685).
T1 construct: human prefrontal cortex or cell membrane fractions for human assays; from tissue
T1 sequence (Q99685 1-303): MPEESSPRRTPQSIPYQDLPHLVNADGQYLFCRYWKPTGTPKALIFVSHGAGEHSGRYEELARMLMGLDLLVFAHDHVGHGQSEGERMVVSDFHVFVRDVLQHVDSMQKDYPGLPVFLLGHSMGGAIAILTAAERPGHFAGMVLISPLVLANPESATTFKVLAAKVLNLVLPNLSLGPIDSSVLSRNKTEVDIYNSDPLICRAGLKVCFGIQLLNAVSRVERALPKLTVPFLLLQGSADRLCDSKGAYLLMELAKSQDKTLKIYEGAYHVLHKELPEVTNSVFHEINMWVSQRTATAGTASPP
The test can be described thus: In vitro competitive activity-based protein profiling, human MAGL. The note with it: for inhibition at 10 µM: read-out: MAGL % inh. 10 μM (human); for inhibition at 1 µM: read-out: MAGL % inh. 1 μM (human). How it is done:
(§1) In Vitro Competitive Activity-Based Protein Profiling.
(§2) Proteomes (mouse brain membrane fraction or cell lysates for mouse assays; human prefrontal cortex or cell membrane fractions for human assays) (50 μL, 1.0 mg/mL total protein concentration) were preincubated with varying concentrations of inhibitors at 37° C. After 30 min, FP-Rh or HT-01 (1.0 μL, 50 μM in DMSO) was added and the mixture was incubated for another 30 min at 37° C. Reactions were quenched with SDS loading buffer (15 μL—4×) and run on SDS-PAGE. Following gel imaging, serine hydrolase activity was determined by measuring fluorescent intensity of gel bands corresponding to MAGL and FAAH using ImageJ 1.43u software.

In test [2] the target is T2, FAAH (Mus musculus, UniProt O08914).
T2 construct: mouse brain membrane fraction or cell lysates for mouse assays; from tissue
T2 sequence (O08914 1-579): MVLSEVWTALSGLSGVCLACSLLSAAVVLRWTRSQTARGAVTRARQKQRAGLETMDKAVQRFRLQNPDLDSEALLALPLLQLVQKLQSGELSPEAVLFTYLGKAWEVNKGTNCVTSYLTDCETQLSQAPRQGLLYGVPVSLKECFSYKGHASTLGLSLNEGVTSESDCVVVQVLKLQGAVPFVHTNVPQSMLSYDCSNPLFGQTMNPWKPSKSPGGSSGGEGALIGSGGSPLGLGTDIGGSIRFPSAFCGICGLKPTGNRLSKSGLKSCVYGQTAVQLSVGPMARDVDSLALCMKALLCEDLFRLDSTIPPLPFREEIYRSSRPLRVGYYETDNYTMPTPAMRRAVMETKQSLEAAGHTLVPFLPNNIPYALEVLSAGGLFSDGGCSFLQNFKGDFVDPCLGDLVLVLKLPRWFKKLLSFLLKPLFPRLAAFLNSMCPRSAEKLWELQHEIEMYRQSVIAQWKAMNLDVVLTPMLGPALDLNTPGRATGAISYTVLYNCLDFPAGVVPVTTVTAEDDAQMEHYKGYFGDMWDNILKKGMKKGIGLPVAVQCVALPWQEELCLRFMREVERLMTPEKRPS
The test can be described thus: In vitro competitive activity-based protein profiling, mouse FAAH. The note with it: 1 μM, read-out: FAAH % inh. 1 μM (mouse). A digest of the protocol: (§3)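 Activity measured as fluorescent gel-band intensity of MAGL and FAAH after SDS-PAGE. Before labelling with FP-Rh or HT-01 (30 min, 37 °C), proteomes at 1.0 mg/mL (mouse brain membrane or lysates; human prefrontal cortex or cell membranes) were exposed to varying inhibitor concentrations for 30 min at 37 °C.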

Test [3] has as its target T3, FAAH (Homo sapiens, UniProt O00519).
T3 construct: human prefrontal cortex or cell membrane fractions for human assays; from tissue
T3 sequence (O00519 1-579): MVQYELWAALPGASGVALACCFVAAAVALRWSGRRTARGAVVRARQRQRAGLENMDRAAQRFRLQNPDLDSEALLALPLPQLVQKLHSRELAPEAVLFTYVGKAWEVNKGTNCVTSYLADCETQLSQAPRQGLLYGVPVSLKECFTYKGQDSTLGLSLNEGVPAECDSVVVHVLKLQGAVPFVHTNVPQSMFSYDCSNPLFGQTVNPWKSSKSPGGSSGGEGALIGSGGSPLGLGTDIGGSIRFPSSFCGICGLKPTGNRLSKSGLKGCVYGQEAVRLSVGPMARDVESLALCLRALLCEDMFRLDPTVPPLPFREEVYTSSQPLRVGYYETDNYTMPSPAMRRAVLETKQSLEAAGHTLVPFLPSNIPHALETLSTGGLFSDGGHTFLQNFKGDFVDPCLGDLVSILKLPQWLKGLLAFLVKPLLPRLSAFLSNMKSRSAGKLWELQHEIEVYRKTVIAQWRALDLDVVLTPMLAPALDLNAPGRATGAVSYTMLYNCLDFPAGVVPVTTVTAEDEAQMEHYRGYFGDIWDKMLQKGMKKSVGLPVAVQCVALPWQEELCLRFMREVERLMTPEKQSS
The test can be described thus: In vitro competitive activity-based protein profiling, human FAAH. The note with it: for inhibition at 10 µM: read-out: FAAH % inh. 10 μM (human); for inhibition at 1 µM: read-out: FAAH % inh. 1 μM (human). How it is done: as §1, §2

For test [4], the target named is T4, MAGL (Mus musculus, UniProt O35678).
T4 construct: mouse brain membrane fraction or cell lysates for mouse assays; from tissue
T4 sequence (O35678 1-303): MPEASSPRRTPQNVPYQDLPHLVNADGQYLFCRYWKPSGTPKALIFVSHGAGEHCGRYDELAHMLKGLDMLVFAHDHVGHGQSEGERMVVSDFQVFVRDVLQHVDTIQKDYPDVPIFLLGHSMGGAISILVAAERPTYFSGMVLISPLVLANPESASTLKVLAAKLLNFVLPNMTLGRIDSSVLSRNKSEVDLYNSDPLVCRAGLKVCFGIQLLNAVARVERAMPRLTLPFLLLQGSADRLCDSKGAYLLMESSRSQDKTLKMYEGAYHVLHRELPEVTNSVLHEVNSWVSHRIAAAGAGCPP
Put plainly: In vitro competitive activity-based protein profiling, mouse MAGL. The note with it: 1 μM, read-out: MAGL % inh. 1 μM (mouse). In outline:
as §3

`O=C(O)c1cnn(C(=O)N2CC3CN(Cc4ccc(Cl)cc4)CC3C2)c1` (centres unmarked) [Example 46, 1-(5-(4-chlorobenzyl)octahydropyrrolo[3,4-c]pyrrole-2-carbonyl)-1H-pyrazole-4-carboxylic acid]: the inhibition at 10 µM on MAGL [1] was not below 75%; at FAAH [3], 0 to 25%. Besides, the inhibition at 1 µM at FAAH [2] was not below 75%; on MAGL [4] it was 0 to 25%.

Take `O=C(O)c1cnn(C(=O)N2CC3CN(Cc4ccc(C(F)(F)F)cc4)CC3C2)c1` (centres unmarked) [Example 47, 1-(5-(4-(trifluoromethyl)benzyl)octahydropyrrolo[3,4-c]pyrrole-2-carbonyl)-1H-pyrazole-4-carboxylic acid]: the inhibition at 10 µM was not below 75% at MAGL [1] and 50 to 75% at FAAH [3]. Also, the inhibition at 1 µM at FAAH [2] is not below 75%; at MAGL [4], 0 to 25%.

As for `O=C(O)c1cnn(C(=O)N2CCC3(CCN(Cc4ccc(Cl)cc4)C3)C2)c1` (centres unmarked) [Example 48, 1-(7-(4-chlorobenzyl)-2,7-diazaspiro[4.4]nonane-2-carbonyl)-1H-pyrazole-4-carboxylic acid], the results for the inhibition at 10 µM on MAGL [1] and on FAAH [3] were not below 75% and 0 to 25%, respectively. Also, the values for the inhibition at 1 µM at FAAH [2] and at MAGL [4] were not below 75% and 0 to 25%, respectively.

As for `CN(Cc1ccccc1Cl)[C@H]1C[C@@H]2CN(C(=O)n3cc(C(=O)O)cn3)C[C@@H]2C1` [Example 183, 1-(trans-5-((2-chlorobenzyl)(methyl)amino)octahydrocyclopenta[c]pyrrole-2-carbonyl)-1H-pyrazole-4-carboxylic acid], the inhibition at 10 µM at MAGL [1] was not below 75%; on FAAH [3], 25 to 50%. Moreover, the inhibition at 1 µM is 50 to 75% on FAAH [2] and 0 to 25% on MAGL [4].

For the molecule `O=C(O)c1cnn(C(=O)N2CCC3(CCN(Cc4cccc(Oc5ccccc5)c4)C3)C2)c1` (centres unmarked) [Example 185, 1-(7-(3-phenoxybenzyl)-2,7-diazaspiro[4.4]nonane-2-carbonyl)-1H-pyrazole-4-carboxylic acid], the inhibition at 10 µM on MAGL [1] was not below 75%; at FAAH [3], 25 to 50%. The inhibition at 1 µM is not below 75% on FAAH [2] and 0 to 25% at MAGL [4].

With `CN(Cc1cccc(Oc2ccccc2)c1)[C@H]1C[C@@H]2CN(C(=O)n3cc(C(=O)O)cn3)C[C@@H]2C1` [Example 188, 1-(trans-5-(methyl(3-phenoxybenzyl)amino)octahydrocyclopenta[c]pyrrole-2-carbonyl)-1H-pyrazole-4-carboxylic acid], the inhibition at 10 µM at MAGL [1] was not below 75%; at FAAH [3] it was 50 to 75%. Further, the inhibition at 1 µM at FAAH [2] is 50 to 75%; at MAGL [4] it was 0 to 25%.

Take `O=C(c1cnn(C(=O)N2CC3CN(Cc4cccc(Oc5ccc(Cl)cc5)c4)CC3C2)c1)N1CCCC1` (centres unmarked) [Example 190, (5-(3-(4-chlorophenoxy)benzyl)hexahydropyrrolo[3,4-c]pyrrol-2(1H)-yl)(4-(pyrrolidine-1-carbonyl)-1H-pyrazol-1-yl)methanone]: the inhibition at 10 µM on MAGL [1] and on FAAH [3] was not below 75% each time. Moreover, the inhibition at 1 µM is not below 75% on FAAH [2] and 0 to 25% at MAGL [4].

For `O=C(O)c1cnn(C(=O)N2CC3CN(Cc4cc(Cl)ccc4C(F)(F)F)CC3C2)c1` (centres unmarked) [Example 196, 1-(5-(5-chloro-2-(trifluoromethyl)benzyl)octahydropyrrolo[3,4-c]pyrrole-2-carbonyl)-1H-pyrazole-4-carboxylic acid], the inhibition at 1 µM was 0 to 25% at MAGL [1], not below 75% at FAAH [2], not below 75% on FAAH [3] and 0 to 25% on MAGL [4]. The inhibition at 10 µM on MAGL [1] and on FAAH [3] was not below 75% in each case.

Turning to `O=C(O)c1cnn(C(=O)N2CC3CN(Cc4ccc(N5CCCC5)cc4C(F)(F)F)CC3C2)c1` (centres unmarked) [Example 197, 1-(5-(4-(pyrrolidin-1-yl)-2-(trifluoromethyl)benzyl)octahydropyrrolo[3,4-c]pyrrole-2-carbonyl)-1H-pyrazole-4-carboxylic acid], the inhibition at 1 µM was 0 to 25% on MAGL [1], not below 75% at FAAH [2], not below 75% at FAAH [3] and 0 to 25% at MAGL [4]. Also, the inhibition at 10 µM at MAGL [1] and on FAAH [3] was not below 75% each time.

`O=C(O)c1cnn(C(=O)N2CC3CN(Cc4cc(N5CCCC5)cc(C(F)(F)F)c4)CC3C2)c1` (centres unmarked) [Example 198, 1-(5-(3-(pyrrolidin-1-yl)-5-(trifluoromethyl)benzyl)octahydropyrrolo[3,4-c]pyrrole-2-carbonyl)-1H-pyrazole-4-carboxylic acid]: the inhibition at 1 µM on MAGL [1] is 0 to 25%; at FAAH [2], not below 75%; on FAAH [3] it was not below 75%; at MAGL [4], 0 to 25%. The values for the inhibition at 10 µM on MAGL [1] and on FAAH [3] were not below 75% and 50 to 75%, respectively.

Consider `NC(=O)c1cnn(C(=O)N2CCC3(CCN(Cc4cc(N5CCOCC5)cc(C(F)(F)F)c4)C3)C2)c1` (centres unmarked) [Example 210, 1-(7-(3-morpholino-5-(trifluoromethyl)benzyl)-2,7-diazaspiro[4.4]nonane-2-carbonyl)-1H-pyrazole-4-carboxamide], for which the inhibition at 1 µM on MAGL [1] is not below 75%; at FAAH [2], not below 75%; at FAAH [3] it was not below 75%; at MAGL [4], 0 to 25%.

Consider `CN(Cc1ccc(N2CCCC2)cc1C(F)(F)F)[C@@H]1C[C@@H]2CN(C(=O)n3cc(C(N)=O)cn3)C[C@@H]2C1` [Example 220, 1-(cis-5-(methyl(4-(pyrrolidin-1-yl)-2-(trifluoromethyl)benzyl)amino)octahydrocyclopenta[c]pyrrole-2-carbonyl)-1H-pyrazole-4-carboxamide], for which the inhibition at 1 µM on MAGL [1], on FAAH [2], at FAAH [3] and at MAGL [4] was 0 to 25% throughout. The inhibition at 10 µM at MAGL [1] and at FAAH [3] was not below 75% throughout.
